Results taken from patent US20110160296A1, “PREPARATION OF 6-OXA-8ALPHA-STEROID ESTROGEN ANALOGUES - A NEW GROUP OF UNNATURAL ESTROGENS AND THEIR USE IN MEDICINE” (TOPASS GMBH, priority 2007, published 2011).
Blank lines part the entries; values can stand above or below the molecule they belong to.

Experiments:
[1] = test system: ovariectomised rats, brain tissue; assay: Lipid peroxidation parameters in brain tissue of ovariectomised rats (antioxidant action); format: in vivo; settings: per os in olive oil, single dose of 5 mg per 100 g of body weight the day before euthanasia
Method: The experimental conditions: compound XVI was given per os in olive oil as a single dose of 5 mg per 100 g of body weight the day before euthanasia. […] Control group of animals were treated using olive oil without steroids.
Schiff bases contain was calculated in conventional units according to fluorometric data; triene conjugates—in conventional units—according to the spectrophotometer data under wave-length 274 nm.

ovariectomised rats [2] = assay: Ovariectomized rat assay: body weight, uterus, femur, serum cholesterol and triglycerides; format: in vivo, rats (Sprague Dawley); settings: n = 20
Method: (§1) The investigation of biological properties of steroids was carried out on sham operated and ovariectomized rats (Sprague Dawley) under the following conditions: compounds IV, XII, XIV and XV were given in olive oil, daily for 35 days.

ovariectomised rats [3] = assay: Effects on serum lipids and liver lipids of ovariectomised rats; format: in vivo, rats (Sprague Dawley)
Method: as §1

[4] = test system: female mouse-hybrids F1CBAxC57BI6; assay: Influence on spleen, antibody-forming cells and thymus of mice after single per os dose; format: in vivo; settings: female mouse-hybrids F1CBAxC57BI6, per os single-dosing administration (5 mg/kg of BW)
Text: Method is described in the article.

[5] = Table 5, 0.05 mg/kg of body weight
[6] = Table 1, 0.5 mg/kg BW in olive oil, daily for 35 days
[7] = Table 2, 0.1 mg/kg intramuscular injection
[8] = Table 3, 0.2 mg/kg intramuscular injection
[9] = Table 3, 0.5 mg/kg intramuscular injection
[10] = Table 5, 5 mg/kg of body weight in olive oil, daily for 35 days

SMILES: COc1ccc2c(c1)O[C@H](C)[C@H]1[C@@H]2CC[C@]2(C)[C@@H](OC(C)=O)CCC[C@@H]12 [Compound XVI]
Triene conjugates ([1]; control 0.209 ± 0.022): 0.152 ± 0.022 conventional units/mg of phospholipids | Klein coefficient ([1]; control 0.70 ± 0.01): 0.71 ± 0.05 | Malonic dialdehyde ([1]; control 1.65 ± 0.14): 1.80 ± 0.18 nmol/mg of phospholipids | Diene conjugates ([1]; control 12.2 ± 0.7): 9.5 ± 1.0 nmol/mg of phospholipids | Schiff bases ([1]; control 129 ± 10): 96 ± 6 conventional units/mg of phospholipids

SMILES: C#C[C@]1(O)CC[C@H]2[C@@H]3CCc4cc(O)ccc4[C@H]3CC[C@@]21C [EE, 17α-Ethynylestradiol, reference compound]
Change of body weight (ovariectomised rats [2]; Table 1, 0.1 mg/kg BW): 23.0 ± 4.3 g | Serum cholesterol (ovariectomised rats [2]; Table 1, 0.1 mg/kg BW): 30.0 ± 1.7 mg/dL | Uterus weight index (ovariectomised rats [2]; Table 1, 0.1 mg/kg BW): 154.0 ± 7.8 mg/100 g BW | Change of body weight (ovariectomised rats [2]; [5]): 3 ± 4 g | Femur weight index (ash femur weight/wet femur weight) (ovariectomised rats [2]; [5]): 0.436 ± 0.004 | Serum cholesterol (ovariectomised rats [2]; [5]): 45.5 ± 2.1 mg/dL | Serum triglycerides (ovariectomised rats [2]; [5]): 129.8 ± 14.5 mg/dL | Uterus weight index (ovariectomised rats [2]; [5]): 164 ± 11 mg/100 g BW

SMILES: CC(=O)Oc1ccc2c(c1)OC[C@H]1[C@@H]2CC[C@]2(C)C(=O)CC[C@@H]12 [compound IV, 6-Oxa-8α-estrone acetate]
Change of body weight (ovariectomised rats [2]; [6]): 45.5 ± 3.8 g | Femur weight index (ash femur weight/wet femur weigh) (ovariectomised rats [2]; [6]): 0.4219 ± 0.005 mg/mg | Serum cholesterol (ovariectomised rats [2]; [6]): 51.9 ± 1.7 mg/dL | Uterus weight index (ovariectomised rats [2]; [6]): 71.8 ± 3.6 mg/100 g BW

SMILES: COc1ccc2c(c1)OC[C@H]1[C@@H]2CC[C@]2(C)C(=O)CCC[C@@H]12 [compound XII, 6-Oxa-D-homo-8α-estrone methyl ether]
Liver lipids Cholesterol (ovariectomised rats [3]; [7]): 2.69 ± 0.06 mg/g | Liver lipids Triglycerides (ovariectomised rats [3]; [7]): 5.21 ± 0.49 mg/g | Serum lipids Cholesterol (ovariectomised rats [3]; [7]): 1.68 ± 0.06 mmol/L | Serum lipids Triglycerides (ovariectomised rats [3]; [7]): 0.42 ± 0.05 mmol/L | Liver lipids Cholesterol (ovariectomised rats [3]; [8]): 2.69 ± 0.06 mg/g | Liver lipids Triglycerides (ovariectomised rats [3]; [8]): 3.72 ± 0.51 mg/g | Serum lipids Cholesterol (ovariectomised rats [3]; [8]): 1.04 ± 0.12 mmol/L | Serum lipids Triglycerides (ovariectomised rats [3]; [8]): 0.85 ± 0.05 mmol/L | Liver lipids Cholesterol (ovariectomised rats [3]; [9]): 2.31 ± 0.06 mg/g | Liver lipids Triglycerides (ovariectomised rats [3]; [9]): 3.17 ± 0.32 mg/g | Serum lipids Cholesterol (ovariectomised rats [3]; [9]): 0.85 ± 0.08 mmol/L | Serum lipids Triglycerides (ovariectomised rats [3]; [9]): 0.94 ± 0.05 mmol/L | Liver lipids Cholesterol (ovariectomised rats [3]; Table 4, 0.2 mg/kg per os): 3.45 ± 0.15 mg/g | Liver lipids Triglycerides (ovariectomised rats [3]; Table 4, 0.2 mg/kg per os): 7.1 ± 0.6 mg/g | Serum lipids Cholesterol (ovariectomised rats [3]; Table 4, 0.2 mg/kg per os): 0.99 ± 0.08 mmol/L | Serum lipids Triglycerides (ovariectomised rats [3]; Table 4, 0.2 mg/kg per os): 1.45 ± 0.14 mmol/L

SMILES: COc1ccc2c(c1)O[C@H](C)[C@H]1[C@@H]2CC[C@]2(C)C(=O)CCC[C@@H]12 [compound XIV, 7β-Methyl-D-homo-6-oxa-8α-estrone methyl ether]
Change of body weight (ovariectomised rats [2]; [10]): 51 ± 4 g | Femur weight index (ash femur weight/wet femur weight) (ovariectomised rats [2]; [10]): 0.392 ± 0.004 | Serum cholesterol (ovariectomised rats [2]; [10]): 54.5 ± 2.8 mg/dL | Serum triglycerides (ovariectomised rats [2]; [10]): 62.2 ± 5.2 mg/dL | Uterus weight index (ovariectomised rats [2]; [10]): 34 ± 2 mg/100 g BW

content of antibody-forming cells [4]: does not influence | mass and number of cells in spleen [4]: does not influence | mass and number of cells in the thymus [4]: does not influence
SMILES: C[C@H]1Oc2cc(O)ccc2[C@H]2CC[C@]3(C)C(=O)CCC[C@H]3[C@H]21 [compound XV]
Change of body weight (ovariectomised rats [2]; [10]): 48 ± 4 g | Femur weight index (ash femur weight/wet femur weight) (ovariectomised rats [2]; [10]): 0.390 ± 0.004 | Serum cholesterol (ovariectomised rats [2]; [10]): 52.2 ± 2.6 mg/dL | Uterus weight index (ovariectomised rats [2]; [10]): 33 ± 3 mg/100 g BW
